pEC50: −log10 of the molar value. Like-named read-outs stand apart in the source and are kept apart here.
Tested on: recombinant NL4-3 virus (Renilla luciferase in nef, Gag P373S)
Experiment: HIV Cell Culture Assay (luciferase reporter virus in MT-2 cells)
Format: cell-based
In short: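 Inhibitor potency against the reporter virus comes from reduced luciferase activity in infected MT-2 cells exposed to a dilution series of compound over 4-5 days.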

| SMILES | pEC50 (NL43, read-out: EC50 Group) | pEC50 (NL43) |
| --- | --- | --- |
| C=C(C)[C@@H]1CC[C@]2(C(=O)NCCCN3CCS(=O)(=O)CC3)CC[C@]3(C)[C@H](CC[C@@H]4[C@@]5(C)CC=C(c6ccc(C(=O)O)cc6F)C(C)(C)[C@@H]5CC[C@]43C)[C@@H]12 [Example 109, 4-((1R,3aS,5aR,5bR,7aR,11aS,11bR,13aR,13bR)-3a-((3-(1,1-dioxido-4-thiomorpholinyl)propyl)carbamoyl)-1-isopropenyl-5a,5b,8,8,11a-pentamethyl-2,3,3a,4,5,5a,5b,6,7,7a,8,11,11a,11b,12,13,13a,13b-octadecahydro-1H-cyclopenta[a]chrysen-9-yl)-3-fluorobenzoic acid] | > 7.00 | – |
| C=C(C)[C@@H]1CC[C@]2(C(=O)NC)CC[C@]3(C)[C@H](CC[C@@H]4[C@@]5(C)CC=C(c6ccc(C(=O)O)cc6)C(C)(C)[C@@H]5CC[C@]43C)[C@@H]12 [Example 26, 4-((1R,3aS,5aR,5bR,7aR,11aS,11bR,13aR,13bR)-5a,5b,8,8,11a-pentamethyl-3a-(methylcarbamoyl)-1-(prop-1-en-2-yl)-2,3,3a,4,5,5a,5b,6,7,7a,8,11,11a,11b,12,13,13a,13b-octadecahydro-1H-cyclopenta[a]chrysen-9-yl)benzoic acid] | > 7.00 | – |
| C=C(C)[C@@H]1CC[C@]2(C(=O)NCCC(=O)N3CCCC3C(=O)O)CC[C@]3(C)[C@H](CC[C@@H]4[C@@]5(C)CC=C(c6ccc(C(=O)O)cc6)C(C)(C)[C@@H]5CC[C@]43C)[C@@H]12 (stereo partly drawn) [Example 127, 1-(3-((1R,3aS,5aR,5bR,7aR,11aS,11bR,13aR,13bR)-9-(4-carboxyphenyl)-5a,5b,8,8,11a-pentamethyl-1-(prop-1-en-2-yl)-2,3,3a,4,5,5a,5b,6,7,7a,8,11,11a,11b,12,13,13a,13b-octadecahydro-1H-cyclopenta[a]chrysene-3a-carboxamido)propanoyl)pyrrolidine-2-carboxylic acid] | > 7.00 | – |
| C=C(C)[C@@H]1CC[C@]2(C(=O)NCCN(CC)CC)CC[C@]3(C)[C@H](CC[C@@H]4[C@@]5(C)CC=C(c6ccc(C(=O)O)cc6)C(C)(C)[C@@H]5CC[C@]43C)[C@@H]12 [Example 70, 4-((1R,3aS,5aR,5bR,7aR,11aS,11bR,13aR,13bR)-3a-(2-(diethylamino)ethylcarbamoyl)-5a,5b,8,8,11a-pentamethyl-1-(prop-1-en-2-yl)-2,3,3a,4,5,5a,5b,6,7,7a,8,11,11a,11b,12,13,13a,13b-octadecahydro-1H-cyclopenta[a]chrysen-9-yl)benzoic acid] | > 7.00 | – |
| C[C@H]1[C@H](C)CC[C@]2(C(=O)NCCN(C)C)CC[C@]3(C)C(=CC[C@@H]4[C@@]5(C)CC=C(c6ccc(C(=O)O)cc6)C(C)(C)[C@@H]5CC[C@]43C)[C@H]12 [Example A1, 4-((4aR,6aR,6bS,8aS,11R,12S,12aS,14aR,14bS)-8a-(2-(dimethylamino)ethylcarbamoyl)-4,4,6a,6b,11,12,14b-heptamethyl-1,4,4a,5,6,6a,6b,7,8,8a,9,10,11,12,12a,14,14a,14b-octadecahydropicen-3-yl)benzoic acid] | > 7.00 | – |
| C=C(C)[C@@H]1CC[C@]2(C(=O)NCCc3ccccn3)CC[C@]3(C)[C@H](CC[C@@H]4[C@@]5(C)CC=C(c6ccc(C(=O)OC)cc6)C(C)(C)[C@@H]5CC[C@]43C)[C@@H]12 [Example 20, methyl 4-((1R,3aS,5aR,5bR,7aR,11aS,11bR,13aR,13bR)-5a,5b,8,8,11a-pentamethyl-1-(prop-1-en-2-yl)-3a-(2-(pyridin-2-yl)ethylcarbamoyl)-2,3,3a,4,5,5a,5b,6,7,7a,8,11,11a,11b,12,13,13a,13b-octadecahydro-1H-cyclopenta[a]chrysen-9-yl)benzoate] | < 7.00 | – |
| C=C(C)[C@@H]1CC[C@]2(C(=O)N(C)CCN(C)C)CC[C@]3(C)[C@H](CC[C@@H]4[C@@]5(C)CC=C(c6ccc(C(=O)O)cc6)C(C)(C)[C@@H]5CC[C@]43C)[C@@H]12 [Example 31, 4-((1R,3aS,5aR,5bR,7aR,11aS,11bR,13aR,13bR)-3a-((2-(dimethylamino)ethyl)(methyl)carbamoyl)-5a,5b,8,8,11a-pentamethyl-1-(prop-1-en-2-yl)-2,3,3a,4,5,5a,5b,6,7,7a,8,11,11a,11b,12,13,13a,13b-octadecahydro-1H-cyclopenta[a]chrysen-9-yl)benzoic acid] | > 7.00 | – |
| C=C(C)[C@@H]1CC[C@]2(C(=O)NCCC(=O)N3CCC(C(=O)O)CC3)CC[C@]3(C)[C@H](CC[C@@H]4[C@@]5(C)CC=C(c6ccc(C(=O)O)cc6)C(C)(C)[C@@H]5CC[C@]43C)[C@@H]12 [Example 49, 1-(3-((1R,3aS,5aR,5bR,7aR,11aS,11bR,13aR,13bR)-9-(4-carboxyphenyl)-5a,5b,8,8,11a-pentamethyl-1-(prop-1-en-2-yl)-2,3,3a,4,5,5a,5b,6,7,7a,8,11,11a,11b,12,13,13a,13b-octadecahydro-1H-cyclopenta[a]chrysene-3a-carboxamido)propanoyl)piperidine-4-carboxylic acid] | > 7.00 | – |
| C=C(C)[C@@H]1CC[C@]2(C(=O)Nc3ccc(OC)cc3)CC[C@]3(C)[C@H](CC[C@@H]4[C@@]5(C)CC=C(c6ccc(C(=O)O)cc6)C(C)(C)[C@@H]5CC[C@]43C)[C@@H]12 [Example 14, 4-((1R,3aS,5aR,5bR,7aR,11aS,11bR,13aR,13bR)-3a-(4-methoxyphenylcarbamoyl)-5a,5b,8,8,11a-pentamethyl-1-(prop-1-en-2-yl)-2,3,3a,4,5,5a,5b,6,7,7a,8,11,11a,11b,12,13,13a,13b-octadecahydro-1H-cyclopenta[a]chrysen-9-yl)benzoic acid] | – | 6.96 |
| C=C(C)[C@@H]1CC[C@]2(C(=O)NCCCN)CC[C@]3(C)[C@H](CC[C@@H]4[C@@]5(C)CC=C(c6ccc(C(=O)O)cc6)C(C)(C)[C@@H]5CC[C@]43C)[C@@H]12 [Example 98, 4-((1R,3aS,5aR,5bR,7aR,11aS,11bR,13aR,13bR)-3a-(3-aminopropylcarbamoyl)-5a,5b,8,8,11a-pentamethyl-1-(prop-1-en-2-yl)-2,3,3a,4,5,5a,5b,6,7,7a,8,11,11a,11b,12,13,13a,13b-octadecahydro-1H-cyclopenta[a]chrysen-9-yl)benzoic acid] | > 7.00 | – |
| C=C(C)[C@@H]1CC[C@]2(C(=O)N[C@@H](C)CN(C)C)CC[C@]3(C)[C@H](CC[C@@H]4[C@@]5(C)CC=C(c6ccc(C(=O)O)cc6)C(C)(C)[C@@H]5CC[C@]43C)[C@@H]12 [Example 68, 4-((1R,3aS,5aR,5bR,7aR,11aS,11bR,13aR,13bR)-3a-((S)-1-(dimethylamino)propan-2-ylcarbamoyl)-5a,5b,8,8,11a-pentamethyl-1-(prop-1-en-2-yl)-2,3,3a,4,5,5a,5b,6,7,7a,8,11,11a,11b,12,13,13a,13b-octadecahydro-1H-cyclopenta[a]chrysen-9-yl)benzoic acid] | > 7.00 | – |
| C=C(C)[C@@H]1CC[C@]2(C(=O)N3CCC(O)CC3)CC[C@]3(C)[C@H](CC[C@@H]4[C@@]5(C)CC=C(c6ccc(C(=O)OC)cc6)C(C)(C)[C@@H]5CC[C@]43C)[C@@H]12 [Example 21, methyl 4-((1R,3aS,5aR,5bR,7aR,11aS,11bR,13aR,13bR)-3a-(4-hydroxypiperidine-1-carbonyl)-5a,5b,8,8,11a-pentamethyl-1-(prop-1-en-2-yl)-2,3,3a,4,5,5a,5b,6,7,7a,8,11,11a,11b,12,13,13a,13b-octadecahydro-1H-cyclopenta[a]chrysen-9-yl)benzoate] | < 7.00 | – |
| C=C(C)[C@@H]1CC[C@]2(C(=O)NCCNCCS(=O)(=O)O)CC[C@]3(C)[C@H](CC[C@@H]4[C@@]5(C)CC=C(c6ccc(C(=O)O)cc6)C(C)(C)[C@@H]5CC[C@]43C)[C@@H]12 [Example 92, 4-((1R,3aS,5aR,5bR,7aR,11aS,11bR,13aR,13bR)-5a,5b,8,8,11a-pentamethyl-1-(prop-1-en-2-yl)-3a-(2-(2-sulfoethylamino)ethylcarbamoyl)-2,3,3a,4,5,5a,5b,6,7,7a,8,11,11a,11b,12,13,13a,13b-octadecahydro-1H-cyclopenta[a]chrysen-9-yl)benzoic acid] | > 7.00 | – |
| C=C(C)[C@@H]1CC[C@]2(C(=O)N[C@H](C(=O)O)C(C)C)CC[C@]3(C)[C@H](CC[C@@H]4[C@@]5(C)CC=C(c6ccc(C(=O)O)cc6)C(C)(C)[C@@H]5CC[C@]43C)[C@@H]12 [Example 61, 4-((1R,3aS,5aR,5bR,7aR,11aS,11bR,13aR,13bR)-3a-((S)-1-carboxy-2-methylpropylcarbamoyl)-5a,5b,8,8,11a-pentamethyl-1-(prop-1-en-2-yl)-2,3,3a,4,5,5a,5b,6,7,7a,8,11,11a,11b,12,13,13a,13b-octadecahydro-1H-cyclopenta[a]chrysen-9-yl)benzoic acid] | > 7.00 | – |
| CC(C)[C@@H]1CC[C@]2(C(=O)NCCC(=O)O)CC[C@]3(C)[C@H](CC[C@@H]4[C@@]5(C)CC[C@H](c6ccc(C(=O)O)cc6)C(C)(C)[C@@H]5CC[C@]43C)[C@@H]12 [Example 124, 4-((1S,3aS,5aR,5bR,7aS,9S,11aS,11bR,13aR,13bR)-3a-(2-carboxyethylcarbamoyl)-1-isopropyl-5a,5b,8,8,11a-pentamethylicosahydro-1H-cyclopenta[a]chrysen-9-yl)benzoic acid] | > 7.00 | – |
| CC(C)[C@@H]1CC[C@]2(C(=O)NCC[N+](C)(C)[O-])CC[C@]3(C)[C@H](CC[C@@H]4[C@@]5(C)CC=C(c6ccc(C(=O)O)cc6)C(C)(C)[C@@H]5CC[C@]43C)[C@@H]12 [Example 97, 2-((1S,3aS,5aR,5bR,7aR,11aS,11bR,13aR,13bR)-9-(4-carboxyphenyl)-1-isopropyl-5a,5b,8,8,11a-pentamethyl-2,3,3a,4,5,5a,5b,6,7,7a,8,11,11a,11b,12,13,13a,13b-octadecahydro-1H-cyclopenta[a]chrysene-3a-carboxamido)-N,N-dimethylethanamine oxide] | – | 8.59 |

— patent US8802661B2, “C-28 amides of modified C-3 betulinic acid derivatives as HIV maturation inhibitors” (priority 2010, dated 2014)
